From ChEMBL document CHEMBL6103575, “Design, synthesis and evaluation of (E)-1-(4-(2-(1H-pyrazol-5-yl)vinyl)phenyl) derivatives as next generation selective RET inhibitors overcoming RET solvent front mutations (G810C/R)” (Eur J Med Chem, 2025)

Tests used:
Ephrin type-A receptor 2 = Ephrin type-A receptor 2 (Homo sapiens, UniProt P29317); test: Inhibition of EPHA2 (unknown origin)
[1] = target: T1, BDNF/NT-3 growth factors receptor (Homo sapiens, UniProt Q16620); test: Inhibition of TRKB (unknown origin)
Target sequence in this assay (Q16620 whole entry): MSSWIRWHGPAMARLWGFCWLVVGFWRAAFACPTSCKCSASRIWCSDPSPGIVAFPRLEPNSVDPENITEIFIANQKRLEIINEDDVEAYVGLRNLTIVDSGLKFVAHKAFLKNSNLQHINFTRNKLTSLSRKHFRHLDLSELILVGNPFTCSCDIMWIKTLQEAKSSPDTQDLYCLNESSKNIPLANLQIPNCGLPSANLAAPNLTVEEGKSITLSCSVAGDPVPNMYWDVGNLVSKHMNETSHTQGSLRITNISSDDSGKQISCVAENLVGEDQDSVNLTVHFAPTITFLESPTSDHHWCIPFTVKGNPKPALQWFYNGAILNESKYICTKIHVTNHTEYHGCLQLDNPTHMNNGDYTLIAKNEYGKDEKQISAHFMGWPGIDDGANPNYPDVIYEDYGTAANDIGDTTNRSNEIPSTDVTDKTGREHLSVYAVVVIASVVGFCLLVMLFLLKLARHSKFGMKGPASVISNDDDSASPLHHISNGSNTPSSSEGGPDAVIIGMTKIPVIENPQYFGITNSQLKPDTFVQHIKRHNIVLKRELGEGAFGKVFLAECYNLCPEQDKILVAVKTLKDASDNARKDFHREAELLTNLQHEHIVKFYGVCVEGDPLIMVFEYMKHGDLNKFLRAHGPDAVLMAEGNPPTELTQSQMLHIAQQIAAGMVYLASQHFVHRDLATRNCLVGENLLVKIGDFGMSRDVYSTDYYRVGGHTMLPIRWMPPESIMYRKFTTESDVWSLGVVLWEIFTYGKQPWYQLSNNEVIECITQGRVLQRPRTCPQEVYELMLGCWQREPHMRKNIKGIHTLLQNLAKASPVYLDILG

[2] = Induction of cell cycle arrest in mouse BaF3 cells harboring CCDC6-RET G810R mutant assessed as accumulation of cells at G0/G1 phase at 30 nM incubated for 24 hrs by propidium iodide staining based analysis (reference value: 52.63%); format: functional
BaF3 [3] = test: Inhibition of RET phosphorylation in mouse BaF3 cells harboring CCDC6-RET incubated for 12 hrs by Western blotting analysis; format: cell-based; conditions: dose <= 300.0 nM
[4] = Induction of cell cycle arrest in mouse BaF3 cells harboring CCDC6-RET G810R mutant assessed as accumulation of cells at G0/G1 phase at 300 nM incubated for 24 hrs by propidium iodide staining based analysis (reference value: 52.63%); format: functional
[5] = Induction of cell cycle arrest in mouse BaF3 cells harboring CCDC6-RET G810R mutant assessed as accumulation of cells at G2/M phase at 300 nM incubated for 24 hrs by propidium iodide staining based analysis (reference value: 33.61%); format: functional
[6] = Toxicity in SCID mouse implanted with mouse BaF3 cells assessed as change in body weight at 25 mg/kg, ip administered once daily for 10 days; format: organism-based; conditions: in vivo, 240 h, time 10 day
[7] = Induction of apoptosis in mouse BaF3 cells harboring CCDC6-RET G810C mutant assessed as viable cells at 300 nM incubated for 48 hrs by Annexin V-PE staining based flow cytometry analysis (Rvb =86.47%); format: functional; conditions: read-out: Activity
[8] = Induction of cell cycle arrest in mouse BaF3 cells harboring CCDC6-RET G810R mutant assessed as accumulation of cells at S phase at 30 nM incubated for 24 hrs by propidium iodide staining based analysis (reference value: 13.66%); format: functional
[9] = target: T1, BDNF/NT-3 growth factors receptor; test: Inhibition of TRKB (unknown origin) at 1 uM relative to control
Target sequence in this assay (Q16620 32-822 limits assumed): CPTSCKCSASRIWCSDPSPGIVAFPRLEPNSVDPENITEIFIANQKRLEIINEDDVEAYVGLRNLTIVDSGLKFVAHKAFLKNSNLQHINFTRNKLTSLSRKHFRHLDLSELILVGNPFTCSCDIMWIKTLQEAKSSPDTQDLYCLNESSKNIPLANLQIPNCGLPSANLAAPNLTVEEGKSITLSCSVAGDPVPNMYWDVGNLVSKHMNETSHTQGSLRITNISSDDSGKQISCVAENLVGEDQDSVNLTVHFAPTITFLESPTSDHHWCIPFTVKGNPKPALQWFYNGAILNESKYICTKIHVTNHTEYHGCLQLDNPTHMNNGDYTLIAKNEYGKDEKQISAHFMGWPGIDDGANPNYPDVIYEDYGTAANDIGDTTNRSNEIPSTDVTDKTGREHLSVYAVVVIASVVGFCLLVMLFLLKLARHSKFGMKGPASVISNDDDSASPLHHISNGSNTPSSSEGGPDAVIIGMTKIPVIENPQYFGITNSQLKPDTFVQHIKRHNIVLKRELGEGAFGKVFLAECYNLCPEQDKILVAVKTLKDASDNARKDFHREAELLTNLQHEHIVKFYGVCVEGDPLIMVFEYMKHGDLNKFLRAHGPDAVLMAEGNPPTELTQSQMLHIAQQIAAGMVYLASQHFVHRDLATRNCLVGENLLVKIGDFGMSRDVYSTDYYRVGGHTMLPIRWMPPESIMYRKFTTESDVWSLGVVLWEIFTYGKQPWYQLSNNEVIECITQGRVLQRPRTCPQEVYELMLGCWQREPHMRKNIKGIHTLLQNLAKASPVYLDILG

[10] = Induction of apoptosis in mouse BaF3 cells harboring CCDC6-RET G810C mutant assessed as early apoptotic cells at 30 nM incubated for 48 hrs by Annexin V-PE staining based flow cytometry analysis (Rvb =8.74%); format: functional
[11] = Induction of apoptosis in mouse BaF3 cells harboring CCDC6-RET assessed as late apoptotic cells at 300 nM incubated for 48 hrs by Annexin V-PE staining based flow cytometry analysis (Rvb =2.44%); format: functional
[12] = Induction of cell cycle arrest in mouse BaF3 cells harboring CCDC6-RET G810C mutant assessed as accumulation of cells at G0/G1 phase at 10 nM incubated for 24 hrs by propidium iodide staining based analysis (reference value: 52.11%); format: functional
[13] = target: Proto-oncogene tyrosine-protein kinase receptor Ret (Homo sapiens, UniProt P07949, G810R); test: Inhibition of RET (unknown origin) G810R mutant
BaF3 [14] = test: Antiproliferative activity against mouse BaF3 cells harbouring CCDC6-RET V804M mutant assessed as inhibition of cell proliferation incubated for 72 hrs by CCK-8 assay; format: functional, cell-based; conditions: BaF3, 72 h
[15] = Induction of cell cycle arrest in mouse BaF3 cells harboring CCDC6-RET assessed as accumulation of cells at G0/G1 phase at 10 nM incubated for 24 hrs by propidium iodide staining based analysis (reference value: 52.51%); format: functional
[16] = Induction of apoptosis in mouse BaF3 cells harboring CCDC6-RET G810C mutant assessed as early apoptotic cells at 100 nM incubated for 48 hrs by Annexin V-PE staining based flow cytometry analysis (Rvb =8.74%); format: functional
[17] = Induction of apoptosis in mouse BaF3 cells harboring CCDC6-RET G810R mutant assessed as late apoptotic cells at 300 nM incubated for 48 hrs by Annexin V-PE staining based flow cytometry analysis (Rvb =3.21%); format: functional
[18] = Induction of cell cycle arrest in mouse BaF3 cells harboring CCDC6-RET assessed as accumulation of cells at G2/M phase at 10 nM incubated for 24 hrs by propidium iodide staining based analysis (reference value: 34.11%); format: functional
[19] = Induction of cell cycle arrest in mouse BaF3 cells harboring CCDC6-RET G810C mutant assessed as accumulation of cells at G2/M phase at 30 nM incubated for 24 hrs by propidium iodide staining based analysis (reference value: 34.75%); format: functional
[20] = Induction of cell cycle arrest in mouse BaF3 cells harboring CCDC6-RET G810C mutant assessed as accumulation of cells at G0/G1 phase at 300 nM incubated for 24 hrs by propidium iodide staining based analysis (reference value: 52.11%); format: functional
[21] = Induction of apoptosis in mouse BaF3 cells harboring CCDC6-RET G810C mutant assessed as viable cells at 30 nM incubated for 48 hrs by Annexin V-PE staining based flow cytometry analysis (Rvb =86.47%); format: functional; conditions: read-out: Activity
[22] = Induction of apoptosis in mouse BaF3 cells harboring CCDC6-RET assessed as necrotic cells at 100 nM incubated for 48 hrs by Annexin V-PE staining based flow cytometry analysis (Rvb =0.19%); format: functional
[23] = Induction of apoptosis in mouse BaF3 cells harboring CCDC6-RET assessed as early apoptotic cells at 300 nM incubated for 48 hrs by Annexin V-PE staining based flow cytometry analysis (Rvb =6.21%); format: functional
[24] = Induction of cell cycle arrest in mouse BaF3 cells harboring CCDC6-RET assessed as accumulation of cells at S phase at 300 nM incubated for 24 hrs by propidium iodide staining based analysis (reference value: 13.27%); format: functional
[25] = Induction of cell cycle arrest in mouse BaF3 cells harboring CCDC6-RET G810R mutant assessed as accumulation of cells at S phase at 300 nM incubated for 24 hrs by propidium iodide staining based analysis (reference value: 13.66%); format: functional
[26] = Induction of cell cycle arrest in mouse BaF3 cells harboring CCDC6-RET assessed as accumulation of cells at G2/M phase at 100 nM incubated for 24 hrs by propidium iodide staining based analysis (reference value: 34.11%); format: functional
[27] = Induction of apoptosis in mouse BaF3 cells harboring CCDC6-RET assessed as early apoptotic cells at 100 nM incubated for 48 hrs by Annexin V-PE staining based flow cytometry analysis (Rvb =6.21%); format: functional
[28] = tested on: Proto-oncogene tyrosine-protein kinase receptor Ret (Homo sapiens), P07949 [G810C]; test: Inhibition of RET (unknown origin) G810C mutant at 1 uM relative to control
[29] = Induction of apoptosis in mouse BaF3 cells harboring CCDC6-RET assessed as late apoptotic cells at 10 nM incubated for 48 hrs by Annexin V-PE staining based flow cytometry analysis (Rvb =2.44%); format: functional
[30] = Induction of cell cycle arrest in mouse BaF3 cells harboring CCDC6-RET G810R mutant assessed as accumulation of cells at S phase at 100 nM incubated for 24 hrs by propidium iodide staining based analysis (reference value: 13.66%); format: functional

Chain of Proto-oncogene tyrosine-protein kinase receptor Ret (Homo sapiens), P07949 [G810C] (P07949 whole entry G810C): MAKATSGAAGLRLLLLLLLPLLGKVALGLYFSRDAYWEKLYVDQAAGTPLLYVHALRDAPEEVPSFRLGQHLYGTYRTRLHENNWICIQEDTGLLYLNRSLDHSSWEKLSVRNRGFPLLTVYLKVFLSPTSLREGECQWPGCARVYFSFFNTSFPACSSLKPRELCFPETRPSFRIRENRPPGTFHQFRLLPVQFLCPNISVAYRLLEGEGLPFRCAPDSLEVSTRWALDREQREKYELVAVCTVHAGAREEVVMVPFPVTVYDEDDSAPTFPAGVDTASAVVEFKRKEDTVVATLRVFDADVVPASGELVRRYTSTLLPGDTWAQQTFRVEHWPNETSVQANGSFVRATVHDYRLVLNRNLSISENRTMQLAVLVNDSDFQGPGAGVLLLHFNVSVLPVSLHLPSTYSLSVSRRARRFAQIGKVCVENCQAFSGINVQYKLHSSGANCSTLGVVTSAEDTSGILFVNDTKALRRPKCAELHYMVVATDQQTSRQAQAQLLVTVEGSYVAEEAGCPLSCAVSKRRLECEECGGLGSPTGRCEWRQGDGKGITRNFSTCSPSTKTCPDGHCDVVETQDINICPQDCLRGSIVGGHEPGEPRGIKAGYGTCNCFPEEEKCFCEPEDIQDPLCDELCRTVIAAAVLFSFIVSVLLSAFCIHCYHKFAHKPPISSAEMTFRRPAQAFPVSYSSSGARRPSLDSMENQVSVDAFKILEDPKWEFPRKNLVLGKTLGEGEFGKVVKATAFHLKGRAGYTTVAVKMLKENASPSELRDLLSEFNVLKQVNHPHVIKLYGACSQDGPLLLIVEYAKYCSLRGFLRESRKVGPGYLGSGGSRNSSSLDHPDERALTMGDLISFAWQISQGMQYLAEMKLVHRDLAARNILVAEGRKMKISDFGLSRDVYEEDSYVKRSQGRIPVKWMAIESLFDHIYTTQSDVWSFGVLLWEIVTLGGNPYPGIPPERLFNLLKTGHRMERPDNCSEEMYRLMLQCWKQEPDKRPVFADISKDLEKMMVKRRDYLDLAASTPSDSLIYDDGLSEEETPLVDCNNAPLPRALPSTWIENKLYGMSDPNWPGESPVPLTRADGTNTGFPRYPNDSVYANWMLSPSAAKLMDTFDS
Chain of Ephrin type-A receptor 2 (P29317 whole entry): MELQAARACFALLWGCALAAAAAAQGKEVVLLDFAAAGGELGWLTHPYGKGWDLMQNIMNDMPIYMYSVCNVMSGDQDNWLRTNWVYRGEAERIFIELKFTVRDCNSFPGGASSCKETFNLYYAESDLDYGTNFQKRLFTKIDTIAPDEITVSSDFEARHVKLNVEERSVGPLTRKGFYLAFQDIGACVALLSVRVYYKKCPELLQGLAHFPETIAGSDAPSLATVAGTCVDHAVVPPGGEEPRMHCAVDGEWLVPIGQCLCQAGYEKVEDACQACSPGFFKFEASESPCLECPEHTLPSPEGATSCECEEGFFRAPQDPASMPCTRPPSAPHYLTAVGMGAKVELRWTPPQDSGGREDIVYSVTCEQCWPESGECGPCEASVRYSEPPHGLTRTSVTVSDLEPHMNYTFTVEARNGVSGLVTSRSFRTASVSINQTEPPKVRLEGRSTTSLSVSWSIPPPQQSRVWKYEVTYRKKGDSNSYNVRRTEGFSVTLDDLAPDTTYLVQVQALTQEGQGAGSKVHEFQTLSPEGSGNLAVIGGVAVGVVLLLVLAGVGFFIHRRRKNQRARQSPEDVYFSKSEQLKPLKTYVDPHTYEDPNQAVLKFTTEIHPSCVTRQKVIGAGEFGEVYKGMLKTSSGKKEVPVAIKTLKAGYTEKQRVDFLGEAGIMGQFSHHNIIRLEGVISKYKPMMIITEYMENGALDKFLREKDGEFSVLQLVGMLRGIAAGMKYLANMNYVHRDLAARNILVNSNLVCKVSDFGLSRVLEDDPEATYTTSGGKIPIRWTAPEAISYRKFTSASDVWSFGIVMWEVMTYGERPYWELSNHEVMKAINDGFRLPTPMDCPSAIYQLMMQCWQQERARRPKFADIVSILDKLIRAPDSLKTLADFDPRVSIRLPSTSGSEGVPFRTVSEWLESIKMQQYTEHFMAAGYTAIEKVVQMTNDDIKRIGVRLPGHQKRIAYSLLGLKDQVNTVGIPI
Chain of Proto-oncogene tyrosine-protein kinase receptor Ret (P07949 29-1114 G810R limits assumed): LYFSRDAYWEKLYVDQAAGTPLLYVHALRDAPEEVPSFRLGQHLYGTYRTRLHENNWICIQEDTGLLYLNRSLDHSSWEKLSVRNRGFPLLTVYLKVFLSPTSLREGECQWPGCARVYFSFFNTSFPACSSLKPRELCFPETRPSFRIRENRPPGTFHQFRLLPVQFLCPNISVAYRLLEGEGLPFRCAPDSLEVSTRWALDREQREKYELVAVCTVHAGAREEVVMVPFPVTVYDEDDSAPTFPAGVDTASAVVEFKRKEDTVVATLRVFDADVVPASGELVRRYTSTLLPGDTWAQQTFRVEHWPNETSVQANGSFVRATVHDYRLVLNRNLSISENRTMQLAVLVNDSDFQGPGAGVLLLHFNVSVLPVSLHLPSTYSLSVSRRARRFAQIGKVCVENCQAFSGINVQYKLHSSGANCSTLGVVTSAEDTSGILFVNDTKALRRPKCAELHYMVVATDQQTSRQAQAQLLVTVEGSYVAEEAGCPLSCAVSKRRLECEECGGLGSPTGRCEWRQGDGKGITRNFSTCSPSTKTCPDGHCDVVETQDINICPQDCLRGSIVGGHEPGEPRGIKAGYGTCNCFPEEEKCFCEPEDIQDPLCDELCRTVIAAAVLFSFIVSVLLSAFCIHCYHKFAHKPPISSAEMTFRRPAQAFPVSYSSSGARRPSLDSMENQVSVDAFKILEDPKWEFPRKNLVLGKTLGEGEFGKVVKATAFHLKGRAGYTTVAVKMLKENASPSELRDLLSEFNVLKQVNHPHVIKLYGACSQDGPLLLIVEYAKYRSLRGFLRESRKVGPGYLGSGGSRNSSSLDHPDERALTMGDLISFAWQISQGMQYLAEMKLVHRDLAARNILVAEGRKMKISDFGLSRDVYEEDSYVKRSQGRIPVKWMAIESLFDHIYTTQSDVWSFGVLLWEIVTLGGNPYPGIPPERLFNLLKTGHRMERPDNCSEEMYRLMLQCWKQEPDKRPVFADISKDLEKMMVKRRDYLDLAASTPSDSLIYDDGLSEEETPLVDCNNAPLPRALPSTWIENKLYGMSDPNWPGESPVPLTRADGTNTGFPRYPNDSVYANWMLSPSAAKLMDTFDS

COc1cncc(-c2cn[nH]c2/C=C/c2ccc(NC(=O)Nc3cc(C(C)(C)C(F)(F)F)on3)c(Cl)c2)c1
IC50 (Ephrin type-A receptor 2): 63.4 nM | IC50 [1]: 86.7 nM | Activity [2]: 53.02% | inhibition (BaF3 [3]): Dose-dependent-effect | Activity [4]: 78.85% | Activity [5]: 16.09% | Activity [6]: Non-toxic | viability at 0.3 µM [7]: 8.22% | Activity [8]: 14.08% | inhibition [9]: 100% | Activity [10]: 9.54% | Activity [11]: 1.39% | Activity [12]: 52.74% | IC50 [13]: 32.4 nM | IC50 (BaF3 [14]): 563 nM | Activity [15]: 54% | Activity [16]: 37.84% | Activity [17]: 9.06% | Activity [18]: 32.46% | Activity [19]: 30.79% | Activity [20]: 72.47% | viability at 0.03 µM [21]: 86.2% | Activity [22]: 0.05% | Activity [23]: 54.65% | Activity [24]: 3.34% | Activity [25]: 4.8% | Activity [26]: 23.17% | Activity [27]: 74.7% | inhibition [28]: 102% | Activity [29]: 2.8% | Activity [30]: 12.78%
